For data set [1], the system named is Hbb^th3/+ mice. The data set can be described thus: ROS levels in mature RBCs of Hbb^th3/+ mice, oral dosing 60 mg/kg twice daily, no BT. Format: in vivo, mouse.
In another data set the test system is C57BL/6 WT mice. Description: Serum iron in C57BL/6 WT mice (previous study). The data set is classed as in vivo, mouse. Conditions: C57BL/6 WT mice dosed with 120 mg/kg for 20 h.
The nature of data set [2]: Half-life of orally administered Fpn127 in rodents. Conditions: in vivo, po.
In data set [3] the test system is Hbb^th3/+ mice. The data set can be described thus: NTBI in plasma after blood transfusion (BT) in Hbb^th3/+ mice (Fe-NTA colorimetric assay). The data set is classed as in vivo, mouse. Conditions: single oral dose 120 mg/kg 30 min before BT, 3 h post BT (FIG. 13). Here is the method: In order to establish the kinetics of NTBI generation in Hbb th3/+ mice (B6.129P2-Hbb-b1tm1Unc Hbb-b2tm1Unc/J, #002683) following blood transfusion (BT) pilot experiments were performed. The wild-type (We) littermates of Hbbth3/+ were used as blood donors for transfusions. Peripheral blood was collected from terminally anesthetized WT mice via retro-orbital route from 3-5 female mice and seven parts of blood were mixed with one part of 14% citrate-phosphate-dextrose adenine and stored at 4° C. until the transfusion (24 h or 15 days). The donor blood was pre-warmed to 37° C. prior to the transfusion. […]
NTBI was measured in murine plasma samples by a Fe-Nitrilotriacetate (NTA)-based assay, adapted from a protocol published by Gosriwatana I et al. 1999 (Quantification of non-transferrin-bound iron in the presence of unsaturated transferrin. Gosriwatana I, Loreal O. Lu S, Brissot P, Porter J, Hider R C. Quantification of non-transferrin-bound iron in the presence of unsaturated transferrin. Anal Biochem. 1999 Sep. 10; 273(2):212-20. First, a solution of 800 mM Nitrilotriacetate acid (NTA) trisodium (Sigma, 72565) and a solution of 800 mM NTA disodium (Sigma, N0128) were prepared and then mixed together to obtain a solution at pH 7.0. […] After 30 minutes of incubation at room temperature, samples were measured in a plate reader (Biotec) at 537 nm.

“Also recorded” adds a separate entry of the source.

As usually defined, the half-life is the time in which the quantity being followed falls by half. A low value points to fast loss.

For the compound `O=C(NCc1ncccc1F)c1coc(CCNCCc2nc3ccccc3[nH]2)n1` [Fpn127], the “ROS levels in RBCs” value with Hbb^th3/+ mice [1] (15 days of oral dosing 60 mg/kg twice daily (FIG. 2B), 60 mg/kg) is recorded as “decreased ROS levels; also recorded: further decreased”; in the data set with Hbb^th3/+ mice [1] (day 8 of oral dosing 60 mg/kg twice daily (FIG. 2A)), “decreased ROS levels”. The “serum iron in WT mice” value in the data set with C57BL/6 WT mice is recorded as “restored to the baseline levels”. The same compound had a half-life in data set [2] of around 2 h. Moreover, the “NTBI in plasma after blood transfusion” value in the data set with Hbb^th3/+ mice [3] is reported as “prevents release; also recorded: prevented the increase of NTBI”.

The values are drawn from patent publication US12533348B2, “Ferroportin-inhibitors for the use in the treatment of transfusion-dependent beta-thalassemia (TDT)” (Vifor (International) AG, priority 2019, dated 2026).
